Target: T1, Human CARM1 (PRMT4) (Homo sapiens, UniProt Q86X55)
T1 construct: Flag-CARM1-His was eluted with 200 ug/ml FLAG peptide in buffer A; made in house; host or cells: HEK 293F cells (BacMam baculovirus, pFastBacMam)
T1 sequence (Q86X55 1-585 isoform Q86X55-1): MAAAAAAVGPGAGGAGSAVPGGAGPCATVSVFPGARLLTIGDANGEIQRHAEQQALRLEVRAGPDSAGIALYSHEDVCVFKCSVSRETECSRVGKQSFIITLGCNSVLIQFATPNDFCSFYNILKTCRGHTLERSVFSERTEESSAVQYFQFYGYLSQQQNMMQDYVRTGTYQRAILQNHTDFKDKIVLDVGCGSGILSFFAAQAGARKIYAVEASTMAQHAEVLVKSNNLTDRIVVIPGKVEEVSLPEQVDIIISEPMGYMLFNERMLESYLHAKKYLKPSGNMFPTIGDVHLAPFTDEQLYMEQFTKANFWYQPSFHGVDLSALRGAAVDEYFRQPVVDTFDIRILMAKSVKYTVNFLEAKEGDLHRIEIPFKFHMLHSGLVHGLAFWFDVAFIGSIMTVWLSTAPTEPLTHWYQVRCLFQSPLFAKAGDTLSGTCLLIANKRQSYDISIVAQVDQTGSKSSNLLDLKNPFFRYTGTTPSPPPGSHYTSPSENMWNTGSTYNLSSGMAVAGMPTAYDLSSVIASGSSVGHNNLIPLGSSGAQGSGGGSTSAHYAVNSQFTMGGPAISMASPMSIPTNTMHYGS
Assay: CARM1 Biochemical Assay (3H-SAM Flashplate, peptide substrate)
Settings: 30 min preincubation
Description: Peptide representative of human histone H3 residues 16-30 was synthesized with an N-terminal linker-affinity tag motif and a C-terminal amide cap by 21st Century Biochemicals. The peptide was purified by high-performance liquid chromatography (HPLC) to greater than 95% purity and confirmed by liquid chromatography mass spectrometry (LC-MS). The sequence was Biot-Ahx-[…]-amide and contained a monomethylated arginine at position 26 (SEQ ID NO:14).
Human CARM1 (PRMT4) (NM_199141.1) transcript clone was amplified from an HEK 293 cDNA library, incorporating a flanking 5′ sequence encoding a FLAG tag ([…]) (SEQ ID NO:6) fused directly to Ala 2 of CARM1 and 3′ sequence encoding a hexa His sequence ([…]) (SEQ ID NO:15) fused directly to Ser 608. The gene sequence encoding isoform1 containing a deletion of amino acids 539-561 was amplified subsequently and subcloned into pFastBacMam (Viva Biotech).
Column was washed with 500 mM NaCl in buffer A and Flag-CARM1-His was eluted with 200 ug/ml FLAG peptide in buffer A. Pooled fractions were dialyzed in 20 mM Tris, 150 mM NaCl, 5% glycerol and 1 mM DTT, pH 7.8. The purity of recovered protein was 94.
General Procedure for CARM1 Enzyme Assays on Peptide Substrates.
The assays were all performed in a buffer consisting of 20 mM Bicine (pH=7.6), 1 mM TCEP, 0.005% BSG, and 0.002% Tween 20, prepared on the day of use. Compounds in 100% DMSO (1 ul) were spotted into a polypropylene 384-well V-bottom plates (Greiner) using a Platemate Plus outfitted with a 384-channel head (Thermo Scientific). DMSO (1 ul) was added to Columns 11, 12, 23, 24, rows A-H for the maximum signal control and 1 ul of SAH, a known product and inhibitor of CARM1, was added to columns 11, 12, 23, 24, rows I-P for the minimum signal control. A cocktail (40 ul) containing the CARM1 enzyme was added by Multidrop Combi (Thermo-Fisher). The compounds were allowed to incubate with CARM1 for 30 min at room temperature, then a cocktail (10 ul) containing ^3H-SAM and peptide was added to initiate the reaction (final volume=51 ul). The final concentrations of the components were as follows: CARM1 was 0.25 nM, ^3H-SAM was 30 nM, peptide was 250 nM, SAH in the minimum signal control wells was 1 mM, and the DMSO concentration was 2%. The assays were stopped by the addition of non-radiolabeled SAM (10 ul) to a final concentration of 300 uM, which dilutes the ^3H-SAM to a level where its incorporation into the peptide substrate is no longer detectable. 50 ul of the reaction in the 384-well polypropylene plate was then transferred to a 384-well Flashplate and the biotinylated peptides were allowed to bind to the streptavidin surface for at least 1 hour before being washed once with 0.1% Tween20 in a Biotek ELx405 plate washer. The plates were then read in a PerkinElmer TopCount plate reader to measure the quantity of ^3H-labeled peptide bound to the Flashplate surface, measured as disintegrations per minute (dpm) or alternatively, referred to as counts per minute (cpm).
Where dpm=disintegrations per minute, cmpd=signal in assay well, and min and max are the respective minimum and maximum signal controls.
Where top and bottom are the normally allowed to float, but may be fixed at 100 or 0 respectively in a 3-parameter fit. The Hill Coefficient normally allowed to float but may also be fixed at 1 in a 3-parameter fit. Y is the % inhibition and X is the compound concentration.

SMILES | IC50 [nM]
CNCCN(C)Cc1c[nH]nc1C#Cc1cccc(OC)c1 [Compound 1] | 101 to 1000
CNCCN(C)Cc1c[nH]nc1C#Cc1ccc(C(C)(C)C)cc1 [Compound 2] | 101 to 1000
CNCCN(C)Cc1c[nH]nc1C#Cc1ccccc1 [Compound 3] | 1010 to 3000
CNCCN(C)Cc1c[nH]nc1C#Cc1ccc(F)cc1 [Compound 4] | 101 to 1000
CNCCN(C)Cc1c[nH]nc1/C=C/c1ccc(-c2ccccc2)cc1 [Compound 5] | 101 to 1000
CNCCN(C)Cc1c[nH]nc1/C=C/c1ccc(C(F)(F)F)cc1 [Compound 6] | 101 to 1000
CNCCN(C)Cc1c[nH]nc1/C=C/c1ccc(OC)cc1 [Compound 7] | < 100
Cc1ccc(/C=C/c2n[nH]cc2CN(C)CCN)cc1 [Compound 8] | 101 to 1000
COc1cc(/C=C/c2n[nH]cc2CN(C)CCN)cc(OC)c1 [Compound 11] | < 100
CN(CCN)Cc1c[nH]nc1/C=C/c1ccc(F)cc1F [Compound 13] | 101 to 1000
CN(CCN)Cc1c[nH]nc1/C=C/c1cc(C(F)(F)F)cc(C(F)(F)F)c1 [Compound 14] | 101 to 1000
CN(CCN)Cc1c[nH]nc1/C=C/c1cc(F)cc(F)c1 [Compound 15] | 101 to 1000
CN(CCN)Cc1c[nH]nc1/C=C/c1cccc(C(F)(F)F)c1 [Compound 16] | 101 to 1000
COc1cccc(/C=C/c2n[nH]cc2CN(C)CCN)c1 [Compound 17] | < 100
CN(CCN)Cc1c[nH]nc1/C=C/c1ccc(C(F)(F)F)cc1 [Compound 18] | < 100
COC/C=C/c1n[nH]cc1CN(C)CCN [Compound 19] | 3010 to 10000
CN(CCN)Cc1c[nH]nc1/C=C/c1cccc(F)c1 [Compound 20] | 101 to 1000
CN(CCN)Cc1c[nH]nc1C1CCCCC1 [Compound 22] | 3010 to 10000
CN(CCN)Cc1c[nH]nc1CCc1ccc(F)cc1 [Compound 23, N^1-((3-(4-fluorophenethyl)-1H-pyrazol-4-yl)methyl)-N^1-methylethane-1,2-diamine] | 1010 to 3000

Reference: patent publication US11185531B2, “Arginine methyltransferase inhibitors and uses thereof” (Epizyme, Inc., priority 2013, dated 2021)
